Reference: patent publication US7553824B2, “Kit for determining polysaccharide-binding activity of mononuclear cells present in peripheral blood” (Ajinomoto Co., Inc., priority 2004, dated 2009)
Where two headings read alike, the source gives them in different places.

How the values were obtained:
monocytes = assay: Test on binding-inhibitory effect of lentinan, human blood; conditions: 100 μg/mL lentinan added before 10 μg/mL fluorescein-labeled lentinan, Cases 3 and 4
Description: To the human blood sample, there was added the solution of lentinan (reference reagent 2) in a concentration of […], the resulting mixture was cultured at 37° C. for 15 minutes, fluorescein-labeled lentinan was then added thereto in a concentration of 10 μg/mL and the resulting mixture was further cultivated at 37° C. for additional 30 minutes. Thereafter, a PE-labeled antibody (available from Caltag Company) against human CD14 was added thereto, the resulting mixture was cultured at 37° C. for 30 minutes, 2 mL/tube of FACS Lysing Solution (a hemolysis/fixation liquid available from BD Company; diluted 10 times with distilled water) and then the resulting mixture was allowed to stand at room temperature for 10 minutes for the hemolysis of the blood sample. The subsequent operations and analysis were carried out by repeating the same procedures used above in the binding ability-determining method (in the foregoing paragraph) (the results thus obtained are shown in FIG. 7 (indicated by LNT+FL)). The similar analysis was carried out using fluorescein-labeled dextran as a control (reference reagent 1) for the fluorescein-labeled lentinan.

S180 mouse sarcoma cells = conditions: S180 subcutaneously transplanted, cited from earlier work
[1] = system: blood cells (monocytes, granulocytes, lymphocytes); assay: Test on binding-inhibitory effect of lentinan, mouse whole blood; parameters: species or system ICR mice; conditions: 50 μg/mL un-labeled lentinan added before 5-40 μg/mL fluorescein-labeled lentinan, one hour
Description: Upon the determination of the binding ability and prior to the dispensation of the whole blood into tubes, a 2 mg/mL lentinan solution diluted 10 times with PBS(−) was introduced into each tube in an amount of 25 μL/tube while ice-cooling the tubes, then the whole blood was dispensed into the tubes in an amount of 65 μL/tube and thereafter, a solution of fluorescein-labeled lentinan was added to each tube in an amount of 10 μL/tube (the final concentration of the lentinan solution for inhibition was set at 50 μg/mL). Then the subsequent operations were carried out according to the same procedures used above in the method for determining the binding ability (the previous section). (The results thus obtained are shown in FIG. 1 (indicated by FL+L50)).

In the case of lentinan, the “effect on binding of fluorescein-labeled lentinan with cells” value (monocytes) is given as “inhibited”, the anti-tumor effect (S180 mouse sarcoma cells; C3H mice) is given as “weak anti-tumor effects” and the anti-tumor effect (S180 mouse sarcoma cells; C57BL/6 mice) is given as “medium anti-tumor effects”. The anti-tumor effect (S180 mouse sarcoma cells; ICR and BALB/c mice) was “higher anti-tumor effects” and the “effect on the binding ability of cells to fluorescein-labeled lentinan” value [1] was “inhibited”.
